Data from US9144573B2, “Prostaglandin transporter inhibitors” (Albert Einstein College of Medicine of Yeshiva University, priority 2006, dated 2015).
Entries after “also recorded” stand apart in the source; their conditions may differ.

Assay: Chronic oral administration in drinking water: blood PGE2, urine PGE2, bleeding time
Type: in vivo, mice
Details: 2 mM in drinking water, 16 days
Experimental: Regular water, vehicle (2% DMSO and 2% cremophor) in drinking water, or 2 mM T26A in drinking water was administered to 17 week old mice for 16 days. At the end of the experiment, we withdrew blood by cardiac puncture. PGE2 in blood samples was measured by using PGE2 EIA kit from Caymanchem.
The mice described above pertaining to FIG. 17 were placed in metabolic cages. Six days after they adjusted to the caged condition (on regular diet and water) regular drinking water, vehicle (2% DMSO and 2% cremophor) in drinking water, or 2 mM T26A in drinking water was administered for 16 days. Urine was collected daily. PGE2 in urine samples was measured using PGE2 EIA kit from Caymanchem. […] This is also consistent with the FIG. 8 model. Inhibiting PGE2 transport into the cell reduces its intracellular degradation such that more is secreted without intracellular degradation.
At the end of the experiment shown in FIGS. 17-18, bleeding time was measured using the tail cut method. About 1 cm tails of restrained mice were cut off; the diameter of the cut was kept the same for all mice. The emerging blood was blotted every 15 seconds without touching the wound. Bleeding time was measured as the point at which bleeding had stopped for 1 minute. Results are shown graphically in FIG. 19. […] It is believed that the blockade of endothelial PCT allows intravascular accumulation of PGE2 or prostacyclin, either of which can inhibit platelet aggregation.

With [N-]=[N+]=NCCOCCOCCNC(=O)c1ccc(Nc2nc(NCCOCCOCCNC(=O)c3ccccc3)nc(Nc3ccc(O)cc3)n2)cc1 [T26A] the “plasma PGE2 levels” value (mice) was “increased plasma PGE2 levels four-fold”, the “urinary excretion of endogenous PGE2” value (mice) was “increased urinary excretion of endogenous PGE2; also recorded: increases PGE2 excretion in urine” and the bleeding time (tail cut method) was “increases bleeding time”.
